# Measured values taken from PMC9522516, “A Simple and Portable Personal Glucose Meter Method Combined with Molecular Docking for Screening of Lipase Inhibitors” (Evidence-based Complementary and Alternative Medicine : eCAM, 2022).
# Target: T1, Lipase (Diutina rugosa, UniProt P20261)
# T1 construct: gene LIP1
# Experiment: lipase activity assay, personal glucose meter readout, % inhibition at […]
# Type: biochemical
# T1 sequence (P20261 16-549): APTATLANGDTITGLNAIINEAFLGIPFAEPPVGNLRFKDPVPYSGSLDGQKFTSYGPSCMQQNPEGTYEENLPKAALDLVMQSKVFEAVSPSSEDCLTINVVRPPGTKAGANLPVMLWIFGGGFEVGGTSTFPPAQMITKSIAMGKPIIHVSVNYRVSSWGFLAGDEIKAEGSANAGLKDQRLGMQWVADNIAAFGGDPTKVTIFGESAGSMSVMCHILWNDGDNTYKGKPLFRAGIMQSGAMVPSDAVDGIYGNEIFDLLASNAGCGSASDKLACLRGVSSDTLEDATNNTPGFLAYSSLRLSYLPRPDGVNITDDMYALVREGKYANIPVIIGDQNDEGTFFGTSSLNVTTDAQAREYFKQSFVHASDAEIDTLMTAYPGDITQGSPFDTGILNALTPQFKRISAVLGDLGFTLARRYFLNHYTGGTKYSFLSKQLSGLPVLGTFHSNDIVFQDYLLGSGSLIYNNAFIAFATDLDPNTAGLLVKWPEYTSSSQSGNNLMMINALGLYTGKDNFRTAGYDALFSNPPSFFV
row,SMILES,inhibition at 2000 µM [%]
1,O=C(O[C@@H]1Cc2c(O)cc(O)cc2O[C@@H]1c1ccc(O)c(O)c1)c1cc(O)c(O)c(O)c1 [(−)-Epicatechin gallate],46.5 ± 2.2
2,Oc1cc(O)c2c(c1)O[C@H](c1cc(O)c(O)c(O)c1)[C@H](O)C2 [(−)-Epigallocatechin],47.2 ± 1.6
3,Oc1cc(O)c2c(c1)O[C@H](c1ccc(O)c(O)c1)[C@H](O)C2 [Epicatechin],42.8 ± 1.8
4,O=C(/C=C/c1ccc(O)c(O)c1)O[C@H](Cc1ccc(O)c(O)c1)C(=O)O [Rosmarinic acid],39.3 ± 3
